Experimental data as given in article PMC5218480 (PLoS ONE, 2017).

Test system: MV-4-11 cells
Test: Gene expression microarray analysis (Affymetrix PrimeView) and GSEA
Type: cell-based, human
Design: RFU PODN (11730768_x_at) / Fold change /veh PODN (11730768_x_at) / RFU LINC00158 (11744669_a_at) / Fold change /veh LINC00158 (11744669_a_at) / RFU DUSP10 (11751237_a_at) / Fold change /veh DUSP10 (11751237_a_at) / RFU ID3 (11757404_x_at) / Fold change /veh ID3 (11757404_x_at) / RFU PLEKHG5 (11737974_s_at) / Fold change /veh PLEKHG5 (11737974_s_at) / RFU LRRC4B (11730491_at) / Fold change /veh LRRC4B (11730491_at) / RFU GIMAP4 (11747438_a_at) / Fold change /veh GIMAP4 (11747438_a_at) / RFU KRT8 (11758183_x_at) / Fold change /veh KRT8 (11758183_x_at) / RFU CNN1 (11734310_a_at) / Fold change /veh CNN1 (11734310_a_at) / RFU VPS37D (11726825_at) / Fold change /veh VPS37D (11726825_at) / RFU C10orf10 (11716522_x_at) / Fold change /veh C10orf10 (11716522_x_at) / RFU KIR2DL2 /// KIR2DL4 /// KIR2DL5A /// KIR2DL5B /// KIR2DS1 /// KIR2DS2 /// KIR2DS3 /// KIR2DS4 /// KIR3DL3 /// KIR3DL3 /// KIR3DS1 (11738374_at) / Fold change /veh KIR2DL2 /// KIR2DL4 /// KIR2DL5A /// KIR2DL5B /// KIR2DS1 /// KIR2DS2 /// KIR2DS3 /// KIR2DS4 /// KIR3DL3 /// KIR3DL3 /// KIR3DS1 (11738374_at) / RFU C1QL1 (11718748_at) / Fold change /veh C1QL1 (11718748_at) / RFU TMPRSS4 (11747572_a_at) / Fold change /veh TMPRSS4 (11747572_a_at) / RFU HAMP (11756126_x_at) / Fold change /veh HAMP (11756126_x_at) / RFU RNFT2 (11725882_a_at) / Fold change /veh RNFT2 (11725882_a_at) / RFU NR4A2 (11747474_a_at) / Fold change /veh NR4A2 (11747474_a_at) / RFU ABCC12 (11746883_a_at) / Fold change /veh ABCC12 (11746883_a_at) / RFU TMEM136 (11760407_x_at) / Fold change /veh TMEM136 (11760407_x_at) / RFU CLDN22 /// WWC2 (11732394_at) / Fold change /veh CLDN22 /// WWC2 (11732394_at) / RFU HLA-DPB1 (11760878_x_at) / Fold change /veh HLA-DPB1 (11760878_x_at) / RFU SPINT1 (11716480_a_at) / Fold change /veh SPINT1 (11716480_a_at) / RFU GAP43 (11754022_s_at) / Fold change /veh GAP43 (11754022_s_at) / RFU A4GNT (11735810_at) / Fold change /veh A4GNT (11735810_at) / RFU PRB3 (11715151_x_at) / Fold change /veh PRB3 (11715151_x_at) / RFU TUBB4B (11761932_at) / Fold change /veh TUBB4B (11761932_at) / RFU CAPN14 (11732068_a_at) / Fold change /veh CAPN14 (11732068_a_at) / RFU TMCC2 (11721928_a_at) / Fold change /veh TMCC2 (11721928_a_at) / RFU IRGQ (11745062_a_at) / Fold change /veh IRGQ (11745062_a_at) / RFU FAM174B (11720279_a_at) / Fold change /veh FAM174B (11720279_a_at) / RFU TMPRSS4 (11748680_a_at) / Fold change /veh TMPRSS4 (11748680_a_at) / RFU FAM212B (11763350_a_at) / Fold change /veh FAM212B (11763350_a_at) / RFU PLEKHG5 (11743358_a_at) / Fold change /veh PLEKHG5 (11743358_a_at) / RFU ZSCAN30 (11745921_a_at) / Fold change /veh ZSCAN30 (11745921_a_at) / RFU CMKLR1 (11741424_a_at) / Fold change /veh CMKLR1 (11741424_a_at) / RFU LOC101060620 /// MAPK8IP1 (11723275_at) / Fold change /veh LOC101060620 /// MAPK8IP1 (11723275_at) / RFU SPTSSB (11747773_x_at) / Fold change /veh SPTSSB (11747773_x_at) / RFU PRSS12 (11739890_at) / Fold change /veh PRSS12 (11739890_at) / RFU BIN1 (11741810_x_at) / Fold change /veh BIN1 (11741810_x_at) / RFU WNT11 (11732464_a_at) / Fold change /veh WNT11 (11732464_a_at) / RFU C10orf10 (11716521_a_at) / Fold change /veh C10orf10 (11716521_a_at) / RFU C5orf56 (11738089_at) / Fold change /veh C5orf56 (11738089_at) / RFU CYB561 (11721691_x_at) / Fold change /veh CYB561 (11721691_x_at) / RFU ANKRD19P (11752326_a_at) / Fold change /veh ANKRD19P (11752326_a_at) / RFU OR2T12 /// OR2T33 /// OR2T8 (11738714_s_at) / Fold change /veh OR2T12 /// OR2T33 /// OR2T8 (11738714_s_at) / RFU VCAN (11748164_a_at) / Fold change /veh VCAN (11748164_a_at) / RFU JSRP1 (11732532_at) / Fold change /veh JSRP1 (11732532_at) / RFU KRTAP10-11 (11738290_x_at) / Fold change /veh KRTAP10-11 (11738290_x_at) / RFU MYO3A (11730013_a_at) / Fold change /veh MYO3A (11730013_a_at) / RFU EBF3 (11725865_a_at) / Fold change /veh EBF3 (11725865_a_at) / RFU CAMK2N1 (11719241_x_at) / Fold change /veh CAMK2N1 (11719241_x_at) / RFU C5orf56 (11738088_a_at) / Fold change /veh C5orf56 (11738088_a_at) / RFU OLFML3 (11715873_a_at) / Fold change /veh OLFML3 (11715873_a_at) / RFU LOC100653217 /// NTM (11731650_a_at) / Fold change /veh LOC100653217 /// NTM (11731650_a_at) / RFU MAPK11 (11762145_a_at) / Fold change /veh MAPK11 (11762145_a_at) / RFU FIZ1 (11724087_x_at) / Fold change /veh FIZ1 (11724087_x_at) / RFU OASL (11726364_x_at) / Fold change /veh OASL (11726364_x_at) / RFU SOX15 (11748057_x_at) / Fold change /veh SOX15 (11748057_x_at) / RFU CD79A (11719716_a_at) / Fold change /veh CD79A (11719716_a_at) / RFU HIST1H1D (11736915_at) / Fold change /veh HIST1H1D (11736915_at) / RFU CASKIN2 (11723855_a_at) / Fold change /veh CASKIN2 (11723855_a_at) / RFU LOC730098 (11760151_x_at) / Fold change /veh LOC730098 (11760151_x_at) / RFU OR4N2 (11742367_at) / Fold change /veh OR4N2 (11742367_at) / RFU PRRT2 (11749266_a_at) / Fold change /veh PRRT2 (11749266_a_at) / RFU SNX32 (11753110_a_at) / Fold change /veh SNX32 (11753110_a_at) / RFU CDHR5 (11726645_a_at) / Fold change /veh CDHR5 (11726645_a_at) / RFU RCAN1 (11760418_a_at) / Fold change /veh RCAN1 (11760418_a_at) / RFU FAM167A (11723789_a_at) / Fold change /veh FAM167A (11723789_a_at) / RFU FAM26E (11764081_at) / Fold change /veh FAM26E (11764081_at) / RFU ISYNA1 (11749810_s_at) / Fold change /veh ISYNA1 (11749810_s_at) / RFU ACY1 (11761880_at) / Fold change /veh ACY1 (11761880_at) / RFU 11764098_at / Fold change /veh 11764098_at / RFU SAMD14 (11745864_x_at) / Fold change /veh SAMD14 (11745864_x_at) / RFU NPB (11741838_a_at) / Fold change /veh NPB (11741838_a_at) / RFU TMPRSS6 (11731388_a_at) / Fold change /veh TMPRSS6 (11731388_a_at) / RFU KRTAP10-2 (11738614_at) / Fold change /veh KRTAP10-2 (11738614_at) / RFU ARHGAP8 /// PRR5-ARHGAP8 (11727945_x_at) / Fold change /veh ARHGAP8 /// PRR5-ARHGAP8 (11727945_x_at) / RFU KRTAP5-7 /// NADSYN1 (11734609_at) / Fold change /veh KRTAP5-7 /// NADSYN1 (11734609_at) / RFU RASL12 (11751679_a_at) / Fold change /veh RASL12 (11751679_a_at) / RFU CDKN2B (11736163_a_at) / Fold change /veh CDKN2B (11736163_a_at) / RFU PRF1 (11729649_at) / Fold change /veh PRF1 (11729649_at) / RFU, ZNF638 /// ZNF638-IT1 / Fold change vs veh, ZNF638 /// ZNF638-IT1 / RFU, PANK3 / Fold change vs veh, PANK3 / RFU, SH3YL1 / Fold change vs veh, SH3YL1 / RFU, ZEB2 / Fold change vs veh, ZEB2 / RFU, NRIP1 / Fold change vs veh, NRIP1 / RFU, PTTG1IP / Fold change vs veh, PTTG1IP / RFU, CAPN2 / Fold change vs veh, CAPN2 / RFU, MED14 / Fold change vs veh, MED14 / RFU, SNORA58 / Fold change vs veh, SNORA58 / RFU, C1orf63 / Fold change vs veh, C1orf63 / RFU, LRRFIP1 / Fold change vs veh, LRRFIP1 / RFU, NDUFAF7 / Fold change vs veh, NDUFAF7 / RFU, SLC12A2 / Fold change vs veh, SLC12A2 / RFU, IBTK / Fold change vs veh, IBTK / RFU, ESF1 / Fold change vs veh, ESF1 / Fold change vs veh, TMEM50B / RFU, TAOK1 / Fold change vs veh, TAOK1 / RFU, ACBD3 / Fold change vs veh, ACBD3 / RFU, TMA16 / Fold change vs veh, TMA16 / RFU, RWDD3 / Fold change vs veh, RWDD3 / RFU, BCAT1 / Fold change vs veh, BCAT1 / RFU, EDEM3 / Fold change vs veh, EDEM3 / RFU, TMEM33 / Fold change vs veh, TMEM33 / RFU, WDR75 / Fold change vs veh, WDR75 / RFU, AHCTF1 / Fold change vs veh, AHCTF1 / RFU, TFRC / Fold change vs veh, TFRC / RFU, ZDHHC17 / Fold change vs veh, ZDHHC17 / RFU, NOM1 / Fold change vs veh, NOM1 / RFU, ARL8B / Fold change vs veh, ARL8B / RFU, ZBTB11 / Fold change vs veh, ZBTB11 / RFU, TAMM41 / Fold change vs veh, TAMM41 / RFU, KIAA1704 /// LOC100996395 / Fold change vs veh, KIAA1704 /// LOC100996395 / RFU, ING1 / Fold change vs veh, ING1 / RFU, TRMT61B / Fold change vs veh, TRMT61B / RFU, FUBP3 / Fold change vs veh, FUBP3 / RFU, TP53 / Fold change vs veh, TP53 / RFU, TNKS2 / Fold change vs veh, TNKS2 / RFU, ZFP14 / Fold change vs veh, ZFP14 / RFU, ACTR2 / Fold change vs veh, ACTR2 / RFU, PPP3R1 / Fold change vs veh, PPP3R1 / RFU, PIK3R1 / Fold change vs veh, PIK3R1 / RFU, HNRNPA1 / Fold change vs veh, HNRNPA1 / RFU, RNF170 / Fold change vs veh, RNF170 / RFU, ZNF28 / Fold change vs veh, ZNF28 / RFU, RNGTT / Fold change vs veh, RNGTT / RFU, OGT / Fold change vs veh, OGT / RFU, BRD1 / Fold change vs veh, BRD1 / RFU, MARS / Fold change vs veh, MARS / RFU, ZNF655 / Fold change vs veh, ZNF655 / RFU, FAHD1 / Fold change vs veh, FAHD1 / RFU, BDP1 / Fold change vs veh, BDP1 / RFU, LRRCC1 / Fold change vs veh, LRRCC1 / RFU, ARID1A / Fold change vs veh, ARID1A / RFU, ZNF146 / Fold change vs veh, ZNF146 / RFU, ZNF330 / Fold change vs veh, ZNF330 / RFU, GPN3 / Fold change vs veh, GPN3 / RFU, C9orf123 / Fold change vs veh, C9orf123 / RFU, N4BP2L2 / Fold change vs veh, N4BP2L2 / RFU, ARFIP1 / Fold change vs veh, ARFIP1 / RFU, FAM179B / Fold change vs veh, FAM179B / RFU, BCL10 / Fold change vs veh, BCL10 / RFU, UHRF1BP1L / Fold change vs veh, UHRF1BP1L / RFU, BET1 / Fold change vs veh, BET1 / RFU, CNOT2 / Fold change vs veh, CNOT2 / RFU, ZNF268 / Fold change vs veh, ZNF268 / Fold change vs veh, ZNF507 / RFU, DGCR2 / Fold change vs veh, DGCR2 / RFU, WDSUB1 / Fold change vs veh, WDSUB1 / Fold change vs veh, HSP90B1 /// MIR3652 / RFU, ADSS / Fold change vs veh, ADSS / RFU, GK / Fold change vs veh, GK / RFU, ZNF148 / Fold change vs veh, ZNF148 / RFU, TAF9 / Fold change vs veh, TAF9 / RFU, SLC1A5 / Fold change vs veh, SLC1A5 / RFU, SLMO2 / Fold change vs veh, SLMO2 / RFU, ABCC4 / Fold change vs veh, ABCC4 / RFU, LOC101060439 /// RAP1B / Fold change vs veh, LOC101060439 /// RAP1B / RFU, RFX7 / Fold change vs veh, RFX7 / RFU, GTPBP10 / Fold change vs veh, GTPBP10 / RFU, CNEP1R1 / Fold change vs veh, CNEP1R1 / RFU, BIVM-ERCC5 /// ERCC5 / Fold change vs veh, BIVM-ERCC5 /// ERCC5 / RFU, ILF3 / Fold change vs veh, ILF3 / RFU 11762660_at / Fold change /veh 11762660_at / RFU VCAN (11757783_s_at) / Fold change /veh VCAN (11757783_s_at) / RFU DDX43 (11728927_at) / Fold change /veh DDX43 (11728927_at) / RFU KRT8 (11758188_x_at) / Fold change /veh KRT8 (11758188_x_at) / RFU NKD1 (11759106_at) / Fold change /veh NKD1 (11759106_at) / RFU SRD5A1 (11742802_a_at) / Fold change /veh SRD5A1 (11742802_a_at) / RFU TPSAB1 /// TPSB2 (11721975_s_at) / Fold change /veh TPSAB1 /// TPSB2 (11721975_s_at) / RFU GSTM3 (11746129_a_at) / Fold change /veh GSTM3 (11746129_a_at) / RFU IL23R (11737362_x_at) / Fold change /veh IL23R (11737362_x_at) / RFU TMEM51 (11727254_a_at) / Fold change /veh TMEM51 (11727254_a_at) / RFU PIWIL2 (11732686_x_at) / Fold change /veh PIWIL2 (11732686_x_at) / RFU ORM1 (11744905_x_at) / Fold change /veh ORM1 (11744905_x_at) / RFU CCDC152 (11743942_at) / Fold change /veh CCDC152 (11743942_at) / RFU ECM1 (11717891_a_at) / Fold change /veh ECM1 (11717891_a_at) / RFU IL23R (11748794_a_at) / Fold change /veh IL23R (11748794_a_at) / RFU TNFAIP8L3 (11732012_x_at) / Fold change /veh TNFAIP8L3 (11732012_x_at) / RFU MBOAT4 (11741988_at) / Fold change /veh MBOAT4 (11741988_at) / RFU 11764193_at / Fold change /veh 11764193_at / RFU TMEM53 (11763286_at) / Fold change /veh TMEM53 (11763286_at) / RFU MAGEB2 (11727129_at) / Fold change /veh MAGEB2 (11727129_at) / RFU TMEM200A (11744735_a_at) / Fold change /veh TMEM200A (11744735_a_at) / RFU CCDC152 (11751479_a_at) / Fold change /veh CCDC152 (11751479_a_at) / RFU FAM211A (11726209_a_at) / Fold change /veh FAM211A (11726209_a_at) / RFU RGS16 (11746705_a_at) / Fold change /veh RGS16 (11746705_a_at) / RFU VCAN (11755009_s_at) / Fold change /veh VCAN (11755009_s_at) / RFU RHOB (11743442_s_at) / Fold change /veh RHOB (11743442_s_at) / RFU RGS16 (11720943_a_at) / Fold change /veh RGS16 (11720943_a_at) / RFU RGS16 (11720944_at) / Fold change /veh RGS16 (11720944_at) / RFU, VPS4B / Fold change vs veh, VPS4B / RFU, CREB1 / Fold change vs veh, CREB1 / RFU, DNAJC13 / Fold change vs veh, DNAJC13 / RFU, GNAQ / Fold change vs veh, GNAQ / RFU, CDK5R1 / Fold change vs veh, CDK5R1 / RFU, ZRANB3 / Fold change vs veh, ZRANB3 / RFU, CUL4A / Fold change vs veh, CUL4A / RFU, CCNY / Fold change vs veh, CCNY / RFU, UFL1 / Fold change vs veh, UFL1 / RFU, COG3 / Fold change vs veh, COG3 / RFU, DIAPH2 / Fold change vs veh, DIAPH2 / RFU, SKA2 / Fold change vs veh, SKA2 / RFU, AFF3 / Fold change vs veh, AFF3 / RFU, LMF1 / Fold change vs veh, LMF1 / RFU, IPO11 / Fold change vs veh, IPO11 / RFU, DFFB / Fold change vs veh, DFFB / RFU, FOXP1 / Fold change vs veh, FOXP1 / RFU, CARD8 / Fold change vs veh, CARD8 / RFU, STRN3 / Fold change vs veh, STRN3 / RFU, ADK / Fold change vs veh, ADK / RFU, RASSF2 / Fold change vs veh, RASSF2 / RFU, WIPF1 / Fold change vs veh, WIPF1 / RFU, LARP1B / Fold change vs veh, LARP1B / RFU, RASA1 / Fold change vs veh, RASA1 / RFU, RB1 / Fold change vs veh, RB1 / RFU, PPFIA1 / Fold change vs veh, PPFIA1 / RFU, MAT2A / Fold change vs veh, MAT2A / RFU, CCT5 / Fold change vs veh, CCT5 / RFU, WDR92 / Fold change vs veh, WDR92 / RFU, CUX1 / Fold change vs veh, CUX1 / RFU, TTC7A / Fold change vs veh, TTC7A / RFU, TMEM135 / Fold change vs veh, TMEM135 / RFU, DEPTOR / Fold change vs veh, DEPTOR / RFU, CPM / Fold change vs veh, CPM / RFU, DNAJB6 / Fold change vs veh, DNAJB6 / RFU, CACNA2D3 / Fold change vs veh, CACNA2D3 / RFU, DTX4 / Fold change vs veh, DTX4 / RFU, TFCP2 / Fold change vs veh, TFCP2 / RFU, GMCL1 /// GMCL1P1 / Fold change vs veh, GMCL1 /// GMCL1P1 / RFU, AEBP2 / Fold change vs veh, AEBP2 / RFU, SNHG1 /// SNORD22 /// SNORD25 /// SNORD26 /// SNORD27 /// SNORD28 /// SNORD29 /// SNORD31 / Fold change vs veh, SNHG1 /// SNORD22 /// SNORD25 /// SNORD26 /// SNORD27 /// SNORD28 /// SNORD29 /// SNORD31 / Fold change (Aza/veh), C12orf56 (ProbeSet 11735607_a_at) / Fold change (ACY-1035/veh), C12orf56 (ProbeSet 11735607_a_at) / Fold change (Aza/veh), FGFR1OP (ProbeSet 11751329_s_at) / Fold change (ACY-1035/veh), FGFR1OP (ProbeSet 11751329_s_at) / Fold change (Aza/veh), VPS36 (ProbeSet 11739960_a_at) / Fold change (ACY-1035/veh), VPS36 (ProbeSet 11739960_a_at) / RFU SYPL1 (11715823_x_at) / Fold change /veh SYPL1 (11715823_x_at) / RFU IGFBP7 (11715501_s_at) / Fold change /veh IGFBP7 (11715501_s_at) / RFU REEP3 (11722064_at) / Fold change /veh REEP3 (11722064_at) / RFU IGLL1 (11728026_x_at) / Fold change /veh IGLL1 (11728026_x_at): dose or concentration left out as unconfirmed
Conditions: ProbeSet 11720154_at; LIST B

Nc1ccc(-c2cccs2)cc1NC(=O)c1ccc2c(c1)cc(C1CC1)n2CCN1CCOCC1 [ACY-1035]
RFU, NRIP1: 473.81 RFU
